Test results from US20240285571A1, “METHODS OF TREATING BONE INFECTIONS” (MICROBION CORPORATION, priority 2020, published 2024).

Assays:
[1] = system: relevant ATCC QC organisms; experiment: Broth microdilution MIC, QC (Example 6); format: cell-based
Protocol: (§1) Test Compounds: The test agents BisEDT (MB-1-B3; Lot No. ED268-1-11-01), MB-2B, and MB-6 were stored at room temperature, in the dark, until assayed. The solvent and diluent for the test agents was DMSO (Sigma; St. Louis, MO; Lot No. SHBB9319V) and the prepared stock concentration was 6,464 μg/mL (101× the final test concentration).
(§2) Test compounds were evaluated at a concentration range of 0.06-64 μg/mL. For Gram-negative test isolates, amikacin and ceftazidime (alone and with clavulanate at a fixed concentration of 4 μg/mL) were evaluated over a concentration range of 0.06-64 μg/mL; meropenem and levofloxacin were evaluated over a concentration range of 0.008-8 μg/mL. For the testing of S. aureus, clindamycin, daptomycin, levofloxacin and vancomycin were evaluated at a concentration range of 0.008-8 μg/mL; linezolid was tested from 0.03-32 μg/mL.
Organisms: The test organisms as shown in Tables 11-15 consisted of clinical isolates from the Micromyx (MMX) repository and reference strains from the American Type Culture Collection (ATCC; Manassas, VA), National Collection of Type Cultures (NCTC; Public Health England, Salisbury, UK), the Network on Antimicrobial Resistance in Staphylococcus aureus (NARSA; BEI Resources, Manassas, VA), and the Centers for Disease Control and Prevention (CDC; Atlanta, GA). The test organisms were maintained frozen at −80° C. Prior to testing, the isolates were cultured on Tryptic Soy Agar with 5% sheep blood (BAP; Becton Dickson [BD]/BBL; Sparks, MD; Lot Nos. 9080650 and 9108563) at 35° C. Relevant ATCC quality control (QC) organisms (Table 16) were included during testing in accordance with CLSI guidelines (3). Further details on the genetic characterization of the isolates where available can be found in Table 17.
(§3) Media: Cation-adjusted Mueller Hinton broth (CAMHB; BD; Lot No. 8190586) was used as the medium for testing (2, 3). For testing daptomycin, calcium was supplemented with […] Ca^2+, resulting in a final concentration of […] Ca^2+ (2, 3).
(§4) MIC Assay Procedure: MIC values were determined using a broth microdilution procedure described by CLSI (2, 3). Automated liquid handlers (Multidrop 384, Labsystems, Helsinki, Finland; Biomek 2000 and Biomek F X, Beckman Coulter, Fullerton CA) were used to conduct serial dilutions and liquid transfers.
(§5) To prepare the drug mother plates, which would provide the serial drug dilutions for the replicate daughter plates, the wells of columns 2 through 12 of standard 96-well microdilution plates (Costar 3795) were filled with 150 μl of the appropriate diluent for each row of drug. The test articles and comparator compounds (300 μl at 101× the highest concentration to be tested) were dispensed into the appropriate wells in column 1. The Biomek 2000 was then used to make 2-fold serial dilutions in the mother plates from column 1 through column 11. The wells of column 12 contained no drug and served as the organism growth control wells for the assay.
(§6) The daughter plates were loaded with 190 μL per well of RPMI using the Multidrop 384. The test panels were prepared on the Biomek FX instrument which transferred 2 μL of drug solution from each well of a mother plate to the corresponding well of each daughter plate in a single step.
(§7) A standardized inoculum of each test organism was prepared per CLSI methods to equal a 0.5 McFarland standard, followed by a dilution of 1:20. The plates were then inoculated with 10 μL of the diluted inoculum using the Biomek 2000 from low to high drug concentration resulting in a final concentration of approximately 5×10^5 CFU/mL.
(§8) Plates were stacked 3-4 high, covered with a lid on the top plate, placed into plastic bags, and incubated at 35° C. for 16 to 20 hr (vancomycin was read for S. aureus after 24 hr incubation time). The MIC was recorded as the lowest concentration of drug that inhibited visible growth of the organism.

[2] = system: Escherichia coli; experiment: Broth microdilution MIC (Example 6); format: cell-based
Protocol: (§9) Test Compounds: The test agents BisEDT (MB-1-B3; Lot No. ED268-1-11-01), MB-2B, and MB-6 were stored at room temperature, in the dark, until assayed.
(§10) For testing daptomycin, calcium was supplemented with […] Ca^2+, resulting in a final concentration of […] Ca^2+ (2, 3).
(§11) MIC Assay Procedure: MIC values were determined using a broth microdilution procedure described by CLSI (2, 3).
(§12) The Biomek 2000 was then used to make 2-fold serial dilutions in the mother plates from column 1 through column 11. The wells of column 12 contained no drug and served as the organism growth control wells for the assay.
(§13) The test panels were prepared on the Biomek FX instrument which transferred 2 μL of drug solution from each well of a mother plate to the corresponding well of each daughter plate in a single step.
as §7, §8

[3] = system: Klebsiella pneumoniae; experiment: Broth microdilution MIC (Example 6); format: cell-based
Protocol: as §9, §10, §11, §12, §13, §7, §8

[4] = system: Pseudomonas aeruginosa; experiment: Broth microdilution MIC (Example 6); format: cell-based
Protocol: as §9, §10, §11, §12, §13, §7, §8

[5] = system: Acinetobacter baumannii; experiment: Broth microdilution MIC (Example 6); format: cell-based
Protocol: as §1, §2, §3, §4, §5, §6, §7, §8

[6] = system: vancomycin-intermediate Staphylococcus aureus; experiment: Broth microdilution MIC (Example 6); format: cell-based
Protocol: as §1, §2, §3, §4, §5, §6, §7, §8

[7] = system: S. aureus; experiment: Broth microdilution MIC (Example 5); format: cell-based, Staphylococcus aureus; settings: Staphylococcus aureus, ATCC 29213 / MSSA, S. aureus MMX 101 (ATCC 29213); QC; MSSA; read-out: MIC
Protocol: (§14) Test and Comparator Agents: The test agents were stored at room temperature until assayed. […] The stock solutions were allowed to stand for at least 1 hr prior to use to auto-sterilize.
(§15) TestMedia: Test media were prepared and stored in accordance with guidelines from CLSI (4, 6, 7).
(§16) Broth Microdilution MC Testing (Aerobic Bacteria and Yeast): The broth microdilution assay method employed for the susceptibility testing of aerobic bacteria (excluding N. gonorrhoeae which was evaluated by agar dilution) and yeast essentially followed the procedures described by CLSI (3, 4, 7, 8) and employed automated liquid handlers to conduct serial dilutions and liquid transfers. […] These would become the ‘mother plates’ from which ‘daughter’ or test plates would be prepared. The drugs (300 μL at 40× the desired top concentration in the test plates) were dispensed into the appropriate well in Column 1 of the mother plates. The Biomek 2000 was used to make serial two-fold dilutions through Column 11 in the “mother plate”. The wells of Column 12 contained no drug and ultimately served as the organism growth control wells.
(§17) The daughter plates were prepared using the Biomek FX which transferred 5 μL of drug solution from each well of a mother plate to the corresponding well of the correct daughter plate in a single step.
(§18) A standardized inoculum of each organism was prepared per CLSI methods (3, 7). Isolated colonies of each test isolate were picked from the primary plate and a suspension was prepared to equal a 0.5 McFarland turbidity standard. Standardized suspensions were then diluted […] (1:100 for yeast, 1:20 for bacteria). After dilution, the inoculum suspensions were then transferred to compartments of sterile reservoirs divided by length (Beckman Coulter), and the Biomek 2000 was used to inoculate all plates. Daughter plates were placed on the Biomek 2000 in reverse orientation so that plates were inoculated from low to high drug concentration.
(§19) The Biomek 2000 delivered 10 μL of standardized inoculum into each well of the appropriate daughter plate for an additional 1:20 dilution.
(§20) Plates were stacked 4 high, covered with a lid on the top plate, placed into plastic bags, and incubated at 35° C. for approximately 24-48 hr for all yeast isolates and 16-24 hr for aerobic bacteria. Plates were viewed from the bottom using a plate viewer. […] MIC endpoints for the test agents and control compounds were read per CLSI criteria (3, 7).

[8] = system: S. pneumoniae; experiment: Broth microdilution MIC (Example 5); format: cell-based
Protocol: as §14, §15, §16, §17, §18, §19, §20

Measured: MIC

CC(C)(O/N=C(\C(=O)N[C@@H]1C(=O)N2C(C(=O)[O-])=C(C[n+]3ccccc3)CS[C@H]12)c1csc(N)n1)C(=O)O.O=C(O)[C@H]1/C(=C/CO)O[C@@H]2CC(=O)N21 [CAZ + CLAV]
>64/4: [1]; K. pneumoniae ATCC BAA-1705
2/4: [1]; P. aeruginosa ATCC 27853

CC(C)(O/N=C(\C(=O)N[C@@H]1C(=O)N2C(C(=O)[O-])=C(C[n+]3ccccc3)CS[C@H]12)c1csc(N)n1)C(=O)O.O=C(O)[C@H]1/C(=C/CO)O[C@@H]2CC(=O)N21 [CAZ/CLAV]
64/4: [2]; E. coli CDC 114, ESBL/KPC | [3]; K. pneumoniae CDC 120, ESBL/KPC | [4]; P. aeruginosa isolate CDC 356, β-lactamase type KPC | [4]; P. aeruginosa isolate CDC 457, β-lactamase type VIM | [4]; P. aeruginosa isolate CDC 516, β-lactamase type KPC/AmpC | [5]; A. baumannii isolate CDC 273, β-lactamase type ESBL/OXA | [5]; A. baumannii isolate CDC 307, β-lactamase type OXA | [5]; A. baumannii isolate CDC 308, β-lactamase type ESBL/OXA
1/4: [2]; E. coli MMX 5755, ESBL
32/4: [4]; P. aeruginosa isolate CDC 230, β-lactamase type VIM/OXA | [4]; P. aeruginosa isolate CDC 444, β-lactamase type VIM | [4]; P. aeruginosa isolate CDC 518, β-lactamase type KPC/AmpC
16/4: [2]; E. coli CDC 451, KPC | [2]; E. coli MMX 5745, KPC | [5]; A. baumannii isolate CDC 284, β-lactamase type ESBL/OXA
>64/4: [2]; E. coli ATCC BAA-2471, NDM | [2]; E. coli CDC 118, ESBL/NDM | [2]; E. coli CDC 435, NDM | [2]; E. coli CDC 503, ESBL/NDM | [3]; K. pneumoniae ATCC BAA-1705, ESBL/KPC | [3]; K. pneumoniae CDC 112, KPC | [3]; K. pneumoniae CDC 113, ESBL/KPC | [3]; K. pneumoniae CDC 115, ESBL/KPC | [3]; K. pneumoniae CDC 129, ESBL/KPC | [3]; K. pneumoniae CDC 135, ESBL/VIM | [3]; K. pneumoniae CDC 138, ESBL/NDM | [3]; K. pneumoniae CDC 158, ESBL/NDM/OXA | [4]; P. aeruginosa isolate CDC 231, β-lactamase type KPC/OXA | [4]; P. aeruginosa isolate CDC 241, β-lactamase type IMP/OXA | [4]; P. aeruginosa isolate CDC 246, β-lactamase type NDM/OXA | [4]; P. aeruginosa isolate CDC 250, β-lactamase type NDM/OXA | [4]; P. aeruginosa isolate CDC 439, β-lactamase type IMP | [5]; A. baumannii isolate CDC 274, β-lactamase type ESBL/OXA | [5]; A. baumannii isolate CDC 275, β-lactamase type ESBL/OXA | [5]; A. baumannii isolate CDC 277, β-lactamase type ESBL/OXA | [5]; A. baumannii isolate CDC 311, β-lactamase type OXA | [5]; A. baumannii isolate CDC 312, β-lactamase type OXA | [5]; A. baumannii isolate CDC 313, β-lactamase type ESBL/OXA | [5]; A. baumannii isolate NCTC 13304, β-lactamase type OXA
8 µg/mL: [3]; K. pneumoniae CDC 126, ESBL/KPC

CCCCCCCCCC(=O)N[C@@H](Cc1c[nH]c2ccccc12)C(=O)N[C@H](CC(N)=O)C(=O)N[C@@H](CC(=O)O)C(=O)N[C@@H]1C(=O)NCC(=O)N[C@@H](CCCN)C(=O)N[C@@H](CC(=O)O)C(=O)N[C@H](C)C(=O)N[C@@H](CC(=O)O)C(=O)NCC(=O)N[C@H](CO)C(=O)N[C@@H]([C@H](C)CC(=O)O)C(=O)N[C@@H](CC(=O)c2ccccc2N)C(=O)O[C@@H]1C [DAP]
1 µg/mL: [6]; S. aureus isolate NRS 1 (hVISA) | [6]; S. aureus isolate NRS 3
2 µg/mL: [6]; S. aureus isolate NRS 13 | [6]; S. aureus isolate NRS 22
0.25 µg/mL: [6]; S. aureus isolate NRS 2 | [6]; S. aureus isolate NRS 27
0.5 µg/mL: [6]; S. aureus isolate NRS 4 | [6]; S. aureus isolate NRS 18 | [6]; S. aureus isolate NRS 24 (hVISA) | [1]; S. aureus ATCC 29213

Cc1onc(-c2ccccc2)c1C(=O)N[C@@H]1C(=O)N2[C@@H]1SC(C)(C)[C@@H]2C(=O)O [Oxacillin]
0.2 µg/mL: [7]

COc1cc(Cc2cnc(N)nc2N)cc(OC)c1OC.Cc1cc(NS(=O)(=O)c2ccc(N)cc2)no1 [Trimeth/Sulfa]
4/76: [8]; S. pneumoniae MMX 880, LevR SXTR CCR EryR PenR
8/152: [8]; S. pneumoniae MMX 5445, MemR SXTR CCR EryR PenR | [8]; S. pneumoniae MMX 8133, MemR SXTR CCR EryR PenR
2/38: [8]; S. pneumoniae MMX 3959, CCR EryR
16/304: [8]; S. pneumoniae MMX 937, MemR SXTR CCR EryR PenR | [8]; S. pneumoniae MMX 5440, MemR SXTR CCR EryR PenR
